Test in all cases: growth of human tumour cells (NCI), 48 h
In experiment [1] the test system is A549.
Experiment [2] has as its system BT-549.
Experiment [3] deals with CCRF-CEM.
For experiment [4], the system named is DU-145.
In experiment [5] the test system is HL-60.
Experiment [6] deals with HOP-92.
For experiment [7], the system named is KM12.
Experiment [8] has as its system MCF7.
The subject of experiment [9] is MDA-MB-231.
In experiment [10] the test system is MDA-MB-435.
The test system of experiment [11] is OVCAR-4.
Experiment [12] concerns PC-3.
Experiment [13] deals with RPMI-8226.
The test system of experiment [14] is SF-268.
The test system of experiment [15] is SF-295.
Experiment [16] concerns SK-MEL-28.
In experiment [17] the test system is SK-MEL-2.
Experiment [18] has as its system TK-10.
Experiment [19] relates to U-251.
For experiment [20], the system named is UACC-62.

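The compound was tested at five concentrations on cells cultured in 96-well plates, with a 48-hour exposure period. GI50 is the concentration that inhibits growth by half.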 Active and inactive are the calls of the source. No stated cut-off is given here; in the data, active = GI50 up to about 1.1 µM and inactive = higher.

Regarding `CN(C)c1ncnc2c1ncn2CCn1cnc2c(N(C)C)ncnc21`, the GI50 in experiment [1], in experiment [2], in experiment [3], in [4], in [5] and in [6] was > 100 µM (inactive) each time. Besides, the GI50 in [7], in [8], in experiment [9], in experiment [10], in experiment [11] and in experiment [12] was > 100 µM (inactive) throughout. The GI50 in [13], in experiment [14], in [15], in experiment [16], in experiment [17] and in [18] was > 100 µM (inactive) throughout. In addition, the GI50 in [19] and in experiment [20] was > 100 µM (inactive) each time.
As to `CC(C)(C)CNCCO`, the GI50 in [1], in [2], in experiment [3], in experiment [4], in experiment [5] and in [6] was > 100 µM (inactive) in each case. In addition, the GI50 in experiment [7], in experiment [8], in [9], in [10], in experiment [11] and in experiment [12] was > 100 µM (inactive) each time. The GI50 in experiment [13], in [14], in [15], in experiment [16], in experiment [17] and in [18] was > 100 µM (inactive) in each case. The GI50 in [19] and in [20] was > 100 µM (inactive) each time.
As to `CN(C1=NS(=O)(=O)N=C(N(C)c2ccccc2)O1)c1ccccc1`, the GI50 in [1] is 21.2 µM (inactive); in experiment [2], 8.38 µM (inactive); in experiment [3], 13.4 µM (inactive); in experiment [4], 21.9 µM (inactive); in experiment [5], 13.6 µM (inactive); in [6], 23.6 µM (inactive). In addition, the GI50 in experiment [7] is 17.8 µM (inactive); in experiment [8], 15 µM (inactive); in experiment [9] it was 17.6 µM (inactive); in experiment [10], 13.8 µM (inactive); in experiment [11], 20.8 µM (inactive); in experiment [12], > 100 µM (inactive). The GI50 is 16.9 µM (inactive) in experiment [13]; 24.5 µM (inactive) in [14]; 21.8 µM (inactive) in experiment [15]; 22.8 µM (inactive) in experiment [16]; 16.4 µM (inactive) in experiment [17]; 35.1 µM (inactive) in experiment [18]. The GI50 in experiment [19] was 16 µM (inactive); in experiment [20], 14.2 µM (inactive).
In the case of `O=S(=O)(NNc1ccccc1)c1ccccc1`, the GI50 in experiment [1] is 8.87 µM (inactive); in [2], 19.2 µM (inactive); in experiment [3] it was 14.3 µM (inactive); in experiment [4] it was 13.2 µM (inactive); in [5], 1.66 µM (inactive); in experiment [6], 19.1 µM (inactive). For the same compound, the GI50 was 1.66 µM (inactive) in experiment [7]; 14.9 µM (inactive) in experiment [8]; 1.36 µM (inactive) in experiment [9]; 4.81 µM (inactive) in experiment [10]; 2.62 µM (inactive) in experiment [11]; 8.15 µM (inactive) in experiment [12]. The GI50 in [13] was 3.71 µM (inactive); in experiment [14], 38.5 µM (inactive); in experiment [15], 0.646 µM (active); in experiment [16], 48.2 µM (inactive); in experiment [17] it was 3.26 µM (inactive); in [18], > 100 µM (inactive). The GI50 was 16.2 µM (inactive) in [19] and 0.481 µM (active) in experiment [20].
Take `C=C(Cl)COC(=O)Nc1cccc(Cl)c1`: the GI50 in experiment [1] is 30.3 µM (inactive); in [2], 26.7 µM (inactive); in [3], 28.2 µM (inactive); in [4], 31.1 µM (inactive); in experiment [5], 24.4 µM (inactive); in experiment [6], 22.7 µM (inactive). In addition, the GI50 in [7] is 31.6 µM (inactive); in experiment [8] it was 28.1 µM (inactive); in experiment [9], 40.4 µM (inactive); in [10], 30.1 µM (inactive); in [11] it was 16.2 µM (inactive); in experiment [12], 29 µM (inactive). For the same compound, the GI50 in experiment [13] is 39.4 µM (inactive); in experiment [14], 40.1 µM (inactive); in experiment [15], 25.7 µM (inactive); in [16], 42.1 µM (inactive); in experiment [17], 22.5 µM (inactive); in experiment [18], 60 µM (inactive). Moreover, the GI50 in experiment [19] is 34.4 µM (inactive); in experiment [20], 20.6 µM (inactive).
`CC(=O)Nc1cc(/C=C\C(=O)N2CC(CCl)c3c2cc(N)c2ccccc32)n(C)n1` (stereo not given): the GI50 in [1] was 0.00614 µM (active); in [2] it was 0.0199 µM (active); in experiment [3], < 0.001 µM (active); in [4], < 0.001 µM (active); in experiment [5], < 0.001 µM (active); in [6] it was 0.0194 µM (active). In addition, the GI50 in [7] is 0.0167 µM (active); in experiment [8] it was 0.00204 µM (active); in [9], 0.045 µM (active); in [10], 0.0169 µM (active); in experiment [11], 0.017 µM (active); in [12] it was 0.0233 µM (active). Also, the GI50 was 0.0179 µM (active) in experiment [13]; 0.0057 µM (active) in [14]; 0.0135 µM (active) in experiment [15]; 0.0144 µM (active) in experiment [16]; 0.0166 µM (active) in [17]; 0.0191 µM (active) in experiment [18]. Also, the GI50 is 0.0031 µM (active) in experiment [19] and 0.00423 µM (active) in [20].
Consider `CCCCCC1=C2C(c3ccc(OC)cc3)=C(N)C(c3ccc(OC)cc3)=C3NC(=O)C(C=C1)C32` (stereo not given), for which the GI50 in experiment [1] was 29.7 µM (inactive); in [2] it was 96.4 µM (inactive); in experiment [3], 32.6 µM (inactive); in experiment [4], 57.5 µM (inactive); in experiment [5], > 100 µM (inactive); in [6] it was 17.9 µM (inactive). Further, the GI50 is 59.6 µM (inactive) in experiment [7]; 84.3 µM (inactive) in experiment [8]; > 100 µM (inactive) in experiment [9]; 37.3 µM (inactive) in [10]; 23.2 µM (inactive) in experiment [11]; 27.7 µM (inactive) in experiment [12]. Also, the GI50 in [13] was 33 µM (inactive); in experiment [14], 11.8 µM (inactive); in experiment [15] it was 36.3 µM (inactive); in experiment [16], > 100 µM (inactive); in [17] it was > 100 µM (inactive); in experiment [18], 60.7 µM (inactive). Further, the GI50 in experiment [19] was 98.2 µM (inactive); in [20] it was 53.1 µM (inactive).
Regarding `Cc1ccccc1-n1c(=O)c2ncn(CCCl)c2n(-c2ccccc2C)c1=S`, the GI50 in experiment [1], in experiment [2], in [3], in [4], in experiment [5] and in experiment [6] was > 100 µM (inactive) each time. Also, the GI50 in experiment [7] was > 100 µM (inactive); in experiment [8], > 100 µM (inactive); in experiment [9], > 100 µM (inactive); in experiment [10], > 100 µM (inactive); in [11], > 100 µM (inactive); in [12], 73.1 µM (inactive). Further, the GI50 in experiment [13], in experiment [14], in [15], in experiment [16], in experiment [17] and in experiment [18] was > 100 µM (inactive) throughout. Moreover, the GI50 in [19] and in experiment [20] was > 100 µM (inactive) throughout.
For the compound `O=C1Nc2ccccc2/C1=C1/Nc2ccccc2/C1=N\OCCNCC(O)C(O)C(O)C(O)CO` (stereo not given), the GI50 was 44.4 µM (inactive) in experiment [1]; 13.9 µM (inactive) in experiment [2]; 10.5 µM (inactive) in [3]; 21.2 µM (inactive) in [4]; 5.5 µM (inactive) in [5]; 10.1 µM (inactive) in experiment [6]. In addition, the GI50 in experiment [7] was 5.14 µM (inactive); in experiment [8] it was 12.4 µM (inactive); in [9] it was 11.2 µM (inactive); in [10], 9.86 µM (inactive); in experiment [11], 31.5 µM (inactive); in [12] it was 10.2 µM (inactive). The GI50 in [13] was 19.1 µM (inactive); in experiment [14], 11.9 µM (inactive); in experiment [15] it was 30.7 µM (inactive); in experiment [16] it was 9.73 µM (inactive); in [17], 7.91 µM (inactive); in experiment [18], 35.8 µM (inactive). For the same compound, the GI50 was 12.9 µM (inactive) in experiment [19] and 8.93 µM (inactive) in experiment [20].
In the case of `COC1=CC2(C=CC1=O)CCNC1=C2C(=O)c2nc[nH]c2C1=O` (stereo not given), the GI50 in [1], in experiment [2], in [3], in [4], in experiment [5] and in experiment [6] was > 100 µM (inactive) in each case. For the same compound, the GI50 in experiment [7], in [8], in experiment [9], in experiment [10], in experiment [11] and in [12] was > 100 µM (inactive) each time. The GI50 in [13], in experiment [14], in experiment [15], in experiment [16], in [17] and in experiment [18] was > 100 µM (inactive) in each case. Besides, the GI50 in [19] and in experiment [20] was > 100 µM (inactive) in each case.

The values are drawn from ChEMBL document CHEMBL1201862, “PubChem BioAssay data set” (2004).
